Tests used:
CCRF-CEM cells = test: MTT cell growth assay, CCRF-CEM cells (GaN-sensitive); format: cell-based, human; details: for IC50: MTT assay, 72 h incubation, read-out: IC50, inhibition of T lymphoma CCRF-CEM cell growth; for Inhibition of CCRF-CEM cell growth (in words): increasing concentrations, 72 h, MTT, FIG. 2
Procedure: CCRF-CEM cells were obtained from ATCC.
(§1) Mantle cell lymphoma (HBL-2 (Human B-cell lymphoma-derived cell line), Granta, JVM-2, NCEB-1, Z138C) and DoHH2 cell lines were obtained from the British Columbia Cancer Agency. p53 cell lines were obtained from the NCI. Gallium maltolate and gallium nitrate were obtained from Titan Pharmaceuticals Inc. (San Francisco, Calif.) and Genta Incorporated (Berkley Heights, N.J.), respectively. Cell proliferation was measured by MTT assay (Mosmann T. “Rapid colorimetric assay for cellular growth and survival: Application to proliferation and cytotoxicity assays”. J Immunol Methods 1983; 65:55-63, incorporated by reference here in its entirety). Caspase-3 activity was measured by ApoOne assay (Promega, Madison, Wis.). Assays for cellular ^59Fe-transferrin uptake and ^125I-transferrin binding were used as previously described in Chitambar, 1997.
(§2) CCRF-CEM cells were plated at a density of 2×10^5 cells/ml in microwell plates (100 μL cell suspension per well) in the presence of increasing concentrations of gallium maltolate or maltol (subsequently referred to as the additives). After 72 h of incubation, 10 μL MTT (3-(4,5-dimethlythiazol-2-yl)-2,5-diphenyltetrazolium bromide) was added to each well and the incubation continued for 4 h at 37° C. Cells were then solubilized by the addition of 100 μL of 0.4 N HCl in isopropanol to each well and the absorbance of each well was read at 570 nm using a microplate reader. The effect of the additives on cell proliferation was determined by comparing the absorbance from wells containing the additives with the absorbance from wells in which the additives were omitted (decreased absorbance signifies decreased cell proliferation). Cell growth was expressed as a percentage of control (cell growth in the absence of additives). Cell proliferation was assessed after 72 h of incubation with gallium maltolate or maltol.
Cell growth was determined by MTT assay as described in Example 1 above. Values shown are means +/−S.E. (n=4).
To determine the effect of GaM on the growth of gallium nitrate-resistant (GnR) and -sensitive (GnS) cells, cells were plated in microwell plates and incubated with GaM. Cellular proliferation was measured by MTT assay after 72 h incubation with GaM. Values shown are means +/−S.E. (n=4).

[1] = test system: GaN-resistant CCRF-CEM cells; test: MTT cell growth assay, gallium nitrate-resistant (GnR) CCRF-CEM cells; format: cell-based, human
Procedure: (§3) Mantle cell lymphoma (HBL-2 (Human B-cell lymphoma-derived cell line), Granta, JVM-2, NCEB-1, Z138C) and DoHH2 cell lines were obtained from the British Columbia Cancer Agency. p53 cell lines were obtained from the NCI. […] Cell proliferation was measured by MTT assay (Mosmann T. “Rapid colorimetric assay for cellular growth and survival: Application to proliferation and cytotoxicity assays”. J Immunol Methods 1983; 65:55-63, incorporated by reference here in its entirety). Caspase-3 activity was measured by ApoOne assay (Promega, Madison, Wis.). Assays for cellular ^59Fe-transferrin uptake and ^125I-transferrin binding were used as previously described in Chitambar, 1997.
as §2, with “After 72 h of incubation, 10 μL MTT (3-(4,5-dimethlythiazol-2-yl)-2,5-diphenyltetrazolium bromide) was added to each well and the incubation continued for 4 h at 37° C.” left out, “Cell growth was expressed as a percentage of control (cell growth in the absence of additives). Cell proliferation was assessed after 72 h of incubation with gallium maltolate or maltol.” left out

lymphoma cell lines = test: Annexin V staining of cells exposed to gallium compounds; format: cell-based; details: cells exposed to GaN or GaM
[2] = test system: MCL cell lines HBL2, JVM2, Z138C, and Granta; test: MTT cell growth assay, mantle cell lymphoma (MCL) cell lines; format: cell-based, human; details: range over the four cell lines, 72 h, read-out: IC50, growth inhibition of MCL cell lines HBL2, JVM2, Z138C, and Granta
Procedure: Mantle cell lymphoma (HBL-2 (Human B-cell lymphoma-derived cell line), Granta, JVM-2, NCEB-1, Z138C) and DoHH2 cell lines were obtained from the British Columbia Cancer Agency. p53 cell lines were obtained from the NCI. Gallium maltolate and gallium nitrate were obtained from Titan Pharmaceuticals Inc. (San Francisco, Calif.) and Genta Incorporated (Berkley Heights, N.J.), respectively. Cell proliferation was measured by MTT assay (Mosmann T. “Rapid colorimetric assay for cellular growth and survival: Application to proliferation and cytotoxicity assays”. J Immunol Methods 1983; 65:55-63, incorporated by reference here in its entirety). Caspase-3 activity was measured by ApoOne assay (Promega, Madison, Wis.). […]
as §2, with “After 72 h of incubation, 10 μL MTT (3-(4,5-dimethlythiazol-2-yl)-2,5-diphenyltetrazolium bromide) was added to each well and the incubation continued for 4 h at 37° C.” left out, “Cell growth was expressed as a percentage of control (cell growth in the absence of additives). Cell proliferation was assessed after 72 h of incubation with gallium maltolate or maltol.” left out

p53 wt TK-6 cells = test: MTT cell growth assay, p53 wt TK-6 cells; format: cell-based, human; details: 72 h
Procedure: as §3
as §2, with “After 72 h of incubation, 10 μL MTT (3-(4,5-dimethlythiazol-2-yl)-2,5-diphenyltetrazolium bromide) was added to each well and the incubation continued for 4 h at 37° C.” left out, “Cell growth was expressed as a percentage of control (cell growth in the absence of additives). Cell proliferation was assessed after 72 h of incubation with gallium maltolate or maltol.” left out

HBL-2 cells [3] = test: Cellular 59Fe-transferrin (iron) uptake by HBL-2 cells; format: cell-based, human; details: 24 h, increasing concentrations of GaM, FIG. 7
Procedure: as §1
HBL-2 cells were incubated in complete medium in the presence of increasing concentrations of GaM. Radioiron (^59Fe-transferrin) was added to cells at the start of the incubation. After 24 h, cells were harvested, washed with phosphate buffered saline to remove unincorporated ^59Fe and centrifuged to pellet the cells. ^59Fe radioactivity in the cell pellet was counted in a gamma counter. The results showing that the amount of radioiron taken up by cells decreases with increasing concentrations of GaM are depicted in FIG. 7.

p53 null HN-32 cells = test: MTT cell growth assay, p53 null HN-32 cells; format: cell-based, human; details: 72 h
Procedure: as §3
as §2, with “After 72 h of incubation, 10 μL MTT (3-(4,5-dimethlythiazol-2-yl)-2,5-diphenyltetrazolium bromide) was added to each well and the incubation continued for 4 h at 37° C.” left out, “Cell growth was expressed as a percentage of control (cell growth in the absence of additives). Cell proliferation was assessed after 72 h of incubation with gallium maltolate or maltol.” left out

caspase-3 [4] = test: Caspase-3 activation (apo-One assay) in HBL-2 cells; format: cell-based, human; details: for Caspase-3 activity in exposed cells, dose dependence: see FIG. 4
Procedure: as §1
After incubation with these compounds, the cells were analyzed for apoptosis using the commercially available apo-One™ assay that measures caspase-3 activation. Data points are the means and S.E. of an experiment performed in triplicate.

p53 mutant WTK-1 cells = test: MTT cell growth assay, p53 mutant WTK-1 cells; format: cell-based, human; details: 72 h
Procedure: as §3
as §2, with “After 72 h of incubation, 10 μL MTT (3-(4,5-dimethlythiazol-2-yl)-2,5-diphenyltetrazolium bromide) was added to each well and the incubation continued for 4 h at 37° C.” left out, “Cell growth was expressed as a percentage of control (cell growth in the absence of additives). Cell proliferation was assessed after 72 h of incubation with gallium maltolate or maltol.” left out

HBL-2 cells [5] = test: MTT cell proliferation assay, mantle cell lymphoma HBL-2 cells; format: cell-based, human; details: 72 h, FIG. 3
Procedure: Mantle cell lymphoma (HBL-2 (Human B-cell lymphoma-derived cell line), Granta, JVM-2, NCEB-1, Z138C) and DoHH2 cell lines were obtained from the British Columbia Cancer Agency. p53 cell lines were obtained from the NCI. […] (San Francisco, Calif.) and Genta Incorporated (Berkley Heights, N.J.), respectively. Cell proliferation was measured by MTT assay (Mosmann T. “Rapid colorimetric assay for cellular growth and survival: Application to proliferation and cytotoxicity assays”. J Immunol Methods 1983; 65:55-63, incorporated by reference here in its entirety). Caspase-3 activity was measured by ApoOne assay (Promega, Madison, Wis.). Assays for cellular ^59Fe-transferrin uptake and ^125I-transferrin binding were used as previously described in Chitambar, 1997. […] Cells were then solubilized by the addition of 100 μL 0.4 N HCl in isopropanol to each well and the absorbance of each well was read at 570 nm using a spectrophotometer. Cell proliferation was measured after a 72 h incubation period. The effect of the additives on cell proliferation was determined by comparing the absorbance from wells with the additives with the absorbance from wells in which the additives were omitted (decreased absorbance signifies decreased cell proliferation). Cell growth was expressed as a percentage of control (cell growth in the absence of additives).

caspase-3 [6] = test: Caspase-3 activity (apo-One assay) in GnR CCRF-CEM cells; format: cell-based, human; details: 24 h incubation, FIG. 5D
Procedure: as §1
After the incubation period, caspase-3 activity was measured by apo-One™ assay.

[7] = test system: transferrin (Tf) receptor; test: 125I-transferrin binding assay, cell surface transferrin receptor density in HBL-2 cells; format: cell-based, human; details: FIG. 8
Procedure: as §1
To determine the mechanism by which GaM acts on cells, cellular transferrin receptor expression was evaluated in HBL-2 cells. The effect of GaM on cellular transferrin receptor expression was determined using a ^125I-transferrin (Tf) binding assay that measures the binding of the ligand Tf to its receptor (TfR). HBL-2 cells were incubated with increasing concentrations of GaM for 24 and 48 h and then analyzed for Tf binding using an established method. The amount of radioactive Tf bound to cellular TfR was calculated using Scatchard analysis.

Structure (SMILES)	IC50 (CCRF-CEM cells)	Inhibition of CCRF-CEM cell growth (in words) (CCRF-CEM cells)	Proliferation of GnR cells resistant to GaN (in words) ([1]; FIG. 5)	IC50 ([1]; MTT assay, 72 h incubation, read-out: IC50, growth inhibition of GaN-resistant cells)	Annexin V staining (lymphoma cell lines)	IC50 [2]	IC50 (p53 wt TK-6 cells)	Growth of p53 wt TK-6 cells (in words) (p53 wt TK-6 cells; FIG. 6)	Amount of radioiron (59Fe) taken up by cells (HBL-2 cells [3])	IC50 (p53 null HN-32 cells)	Growth of p53 null HN-32 cells (in words) (p53 null HN-32 cells; FIG. 6)	Caspase-3 activation in HBL-2 cells (caspase-3 [4]; 48 h incubation, similar concentrations of GaM and GaN, FIG. 4)	Caspase-3 activity in exposed cells, dose dependence (caspase-3 [4])	IC50 (p53 mutant WTK-1 cells)	Growth of p53 mutant WTK-1 cells (in words) (p53 mutant WTK-1 cells; FIG. 6)	Inhibition of HBL-2 cell proliferation, GaM compared with GaN (in words) (HBL-2 cells [5])	Caspase-3 activation in GnR cells (caspase-3 [6])	Number of TfRs on the cell surface ([7]; 24 h, 25 and 50 μM GaM)	Number of TfRs on the cell surface ([7]; 48 h, 25 μM GaM)
Cc1occc(=O)c1[O-].Cc1occc(=O)c1[O-].Cc1occc(=O)c1[O-].[Ga+3] [GaM, gallium maltolate]	29 µM	inhibited	inhibits proliferation	70 µM	increase	15 to 30 µM	18 µM	inhibited to a similar extent	decreases	45 µM	inhibited to a similar extent	activated	dose-dependent increase	45 µM	inhibited to a similar extent	much lower concentrations of gallium were required to inhibit cell proliferation	activates caspase-3	increase the number of TfRs	increases TfR number
O=[N+]([O-])[O-].O=[N+]([O-])[O-].O=[N+]([O-])[O-].[Ga+3] [GaN, gallium nitrate, reference compound]	103 µM				increase	45 to 400 µM							dose-dependent increase				not		
Cc1occc(=O)c1O [Maltol, maltol, reference compound]		did not inhibit cell growth																	

From patent US20070231407A1, “Method of treating gallium-nitrate resistant tumors using gallium-containing compounds” (priority 2006, published 2007)
